Measured values: article PMC2663005 (Bioorganic & medicinal chemistry, 2009)

What was measured:
[1] = molecular target: T1, S. aureus SrtAΔN24 (Staphylococcus aureus, UniProt Q2FV99); experiment: biochemical; type: biochemical; details: for Hill Coefficient: fit of fractional activity vs inhibitor concentration
[2] = molecular target: T1, S. aureus SrtAΔN24; experiment: HPLC-based SrtA activity assay at fixed inhibitor concentrations; type: biochemical; details: read-out: percent inhibition (%I)
[3] = molecular target: SrtA Cys184 (Staphylococcus aureus, UniProt Q2FV99); experiment: ESI-MS and MS/MS of trypsin-digested inhibitor-treated SrtA; type: binding; details: SrtA incubated with compound, SDS-PAGE, trypsin digest

C=CS(=O)(=O)[C@H]1C[C@@](CCC(=O)OC)(C(=O)OC)N[C@H]1c1ccc(OC)c(OC)c1 (relative stereo) [Compound 2k, Methyl (2S*,4S*,5S*)-5-(3,4-dimethoxyphenyl)-4-ethenesulfonyl-2-(2-methoxycarbonylethyl)pyrrolidine-2-carboxylate] gave an IC50 [1] of over 5 mM.
C=CS(=O)(=O)[C@H]1C[C@@](CCC(=O)OC)(C(=O)OC)N[C@H]1c1cccnc1 (relative stereo) [Compound 2l, Methyl (2S*,4S*,5S*)-4-ethenesulfonyl-2-(2-methoxycarbonylethyl)-5-pyridin-3-yl-pyrrolidine-2-carboxylate] was tested, and the “Hill Coefficient” value [1] was 1.40 ± 0.33.
C=CS(=O)(=O)[C@H]1C[C@]2(C(=O)OC)CCC(=O)N2[C@H]1c1ccccc1 (relative stereo) [Compound 3j, Methyl (2S*,3S*,7aS*)-2-ethenesulfonyl-5-oxo-3-phenyltetrahydropyrrolizine-7a-carboxylate] was tested, and the “Hill Coefficient” value [1] was 1.90 ± 0.23.
In the case of C=CS(=O)(=O)[C@H]1C[C@]2(C(=O)OC)CCC(=O)N2[C@H]1c1ccc(OC)c(OC)c1 (relative stereo) [Compound 3k, Methyl (2S*,3S*,7aS*)-3-(3,4-dimethoxyphenyl)-2-ethenesulfonyl-5-oxotetrahydropyrrolizine-7a-carboxylate], the “Hill Coefficient” value [1] is reported as 1.39 ± 0.28.
With C=CS(=O)(=O)[C@H]1C[C@]2(C(=O)OC)CCC(=O)N2[C@H]1c1cccnc1 (relative stereo) [Compound 3l, Methyl (2S*,3S*,7aS*)-2-ethenesulfonyl-5-oxo-3-pyridin-3-yl-tetrahydropyrrolizine-7a-carboxylate] the “Hill Coefficient” value [1] was 1.42 ± 0.14.
For Cc1cn(C[C@@H]2C[C@H](C#N)[C@H](c3ccccc3)N2C)c(=O)[nH]c1=O (relative stereo) [Compound 9, (2R*,3S*,5S*)-1-Methyl-5-(5-methyl-2,4-dioxo-3,4-dihydro-2H-pyrimidin-1-ylmethyl)-2-phenylpyrrolidine-3-carbonitrile], the inhibition at 1000 µM [2] was 6%.
In the case of C=CS(=O)(=O)C1CC(C(=O)OC)NC1c1cccc(F)c1 (stereo not shown) [Compound 2c], the “covalent modification of SrtA” value [3] is reported as “formation of a covalent adduct with Cys184”.
